Experimental data: PMC7601674, “CoQ10 Deficient Endothelial Cell Culture Model for the Investigation of CoQ10 Blood–Brain Barrier Transport” (Journal of Clinical Medicine, 2020)

Assays:
[1] = set-up: method as in PMID 9671775; details: diet supplemented with 200 mg/kg CoQ10 for 2 months; cited from earlier work
[2] = system: CoQ10 deficient human neuroblastoma cells; set-up: method as in PMID 24534273; details: treatment with 10 μmol/L CoQ10; cited from earlier work
[3] = system: bEnd.3 cells (mouse BBB cell line) monolayer; test: CoQ10 transport assay across bEnd.3 monolayer on Transwell filters (control or pABA treated)
Description: (§1) Unless stated, CoQ10 was pre-treated by incubation in serum at a concentration of 20 µM for 45 min at 37 °C, and added to assay buffer on either the Apical (blood facing) or Basal (brain facing) side of the cells on Transwell filters. The final concentration of CoQ10 used in the assays was 10 µM in serum (50% v/v). Cells were then incubated for 60 min on an orbital shaker (100 rpm) at 37 °C. Samples of the Apical (A) and Basal (B) media were then taken for analysis to calculate A to B (blood-to-brain) or B to A (brain-to-blood) Papp in cm/s, as previously described by Patabendige et al.. CoQ10 concentrations were determined using the LC-MS/MS method described above (Section 2.2).
(§2) Inhibitors of transport were added to both Apical and Basal sides of the cells for 2 h prior to assay. Antioxidants were pre-incubated with CoQ10 in serum for 45 min prior to assay, and were present in the assay buffer. Compounds used were; SR-B1 inhibitor, blocker of lipid transport-1 (BLT-1; 10 µmol/L)
As previously described, para-aminobenzoic acid (pABA) was used as a pharmacological reagent to induce CoQ10 deficiency. The mechanism of action is via competitive inhibition of polyprenyl-4-hydroxybenzoate transferase (Coq2p), a key enzyme in the later stages of the CoQ10 biosynthetic pathway. Following the method of Duberley et al., 1 mmol/L pABA was added to culture medium for 5 days prior to assay.

[4] = system: ataxic symptoms; set-up: method as in PMID 22490322; details: cerebellar ataxic phenotype, following CoQ10 supplementation; cited from earlier work
[5] = set-up: method as in PMID 16647250; details: high-dose (1000–5000 mg/kg) CoQ10; cited from earlier work
[6] = CoQ10 partition in serum lipoprotein fractions; format: in vitro ADME, bovine; details: for CoQ10 content in HDL fraction / CoQ10 content in LDL fraction: n = 3; for CoQ10 content in vLDL fraction: calculated by subtraction
Description: Bovine plasma-derived serum (BPDS) was either untreated or supplemented with 10 µM CoQ10 for 45 min at 37 °C. Serum lipoproteins were then fractionated according to the method of Ononogbu et al. and the CoQ10 content measured in each fraction by LC-MS/MS. This lipoprotein fraction method is comprised of two parallel precipitation-centrifugation extractions, yielding a separation of the major classes of lipoprotein as supernatants containing “LDL + HDL” and “HDL”. The concentration of CoQ10 in the “VLDL” fraction was calculated by subtraction.

[7] = set-up: method as in PMID 17482886, PMID 22272129; details: after oral-supplementation in vivo; cited from earlier work
[8] = system: primary porcine brain endothelial cells (PBEC) monolayer; test: CoQ10 transport assay across PBEC monolayer on Transwell filters; details: for Transport to the Basal side, percentage of Apical compartment: A to B, no serum pre-incubation
Description: Primary porcine brain endothelial cells (PBEC) were isolated and cultured as previously published. Briefly, cells were seeded at 10 × 10^4 cells/cm^2 on collagen and fibronectin-coated polycarbonate Transwell filters (Corning 0.4 µm pore size) in 12-well plates, and grown in low glucose DMEM (Sigma D5546) supplemented with bovine plasma-derived serum (10% v/v; BPDS, First Link UK), glutamine (2 mM), heparin (125 µg/mL), penicillin (100 U/mL) and streptomycin (100 µg/mL), at 37 °C in a 5% CO2 incubator. PBECs were grown in non-contact co-culture above primary rat astrocytes until confluent, then supplemented with hydrocortisone (550 nM), 8-4-chlorophenylthio-cAMP (250 µM) and RO-20-1724 (17.5 µM) in serum-free medium for a further 3 days. Before assays of CoQ10 transport, PBECs were separated from astrocytes by moving transwell filters to fresh culture plates.
as §1, §2

[9] = serum supplemented with 10 μmol/L CoQ10
[10] = serum supplemented with 10 μmol/L CoQ10, 45 min

Effect of serum pre-incubation on Papp (A to B and B to A) ([3]; bEnd.3, 60 min): enhanced transport in both directions
NET CoQ10 Apical to Basal Papp (A to B Papp - B to A Papp) ([3]; bEnd.3, Control): -2e-08 cm/s
NET CoQ10 Apical to Basal Papp (A to B Papp - B to A Papp) ([3]; bEnd.3, LDLR inhib (RAP 0.5 µM)): 1e-07 cm/s
NET CoQ10 Apical to Basal Papp (A to B Papp - B to A Papp) ([3]; bEnd.3, P-gp inhib (verapamil 0.1 mM)): -4e-08 cm/s
NET CoQ10 Apical to Basal Papp (A to B Papp - B to A Papp) ([3]; bEnd.3, RAGE inhib (FPS-ZM1 1 µM)): -8e-08 cm/s
NET CoQ10 Apical to Basal Papp (A to B Papp - B to A Papp) ([3]; bEnd.3, SR-B1 inhib (BLT-1 10 µM)): -1.3e-07 cm/s
Transport across monolayer after pABA treatment vs control ([3]; bEnd.3, pABA 1 mM 5 days): increased transport
Supplemented CoQ10 recovered in the vLDL/LDL fractions ([6]; serum supplemented with 10 µM CoQ10): More than 92%
% of CoQ10 in HDL fraction [6, 9]: 7.2%
% of CoQ10 in LDL fraction [6, 9]: 63.8%
% of CoQ10 in vLDL fraction [6, 9]: 29%
CoQ10 content in HDL fraction [6, 10]: 762 ± 8.1 nmol/L
CoQ10 content in LDL fraction [6, 10]: 6718 ± 103.5 nmol/L
CoQ10 content in vLDL fraction [6, 9]: 3060 ± 138.8 nmol/L
Serum endogenous CoQ10 content ([6]; untreated cell culture serum): 147.5 ± 0.5 nM
% of CoQ10 in HDL fraction ([6]; untreated serum): 21.7%
% of CoQ10 in LDL fraction ([6]; untreated serum): 77.7%
% of CoQ10 in vLDL fraction ([6]; untreated serum): 0.6%
CoQ10 content in HDL fraction ([6]; untreated serum): 32.7 ± 1.8 nmol/L
CoQ10 content in LDL fraction ([6]; untreated serum): 117.0 ± 1.2 nmol/L
CoQ10 content in vLDL fraction ([6]; untreated serum): 0.9 ± 0.01 nmol/L
Transport to the Basal side, percentage of Apical compartment ([8]; 30 min): undetectable
Transport to the Basal side, percentage of Apical compartment ([8]; after 2 h, n = 4): 0.51 ± 0.15%
Increase of transport across PBEC monolayer after pre-incubation in serum ([8]; CoQ10 pre-incubated 45 min in serum (BPDS) vs no serum): 4 fold
Effect of serum pre-incubation on Papp (A to B and B to A) ([8]; PBEC, 60 min): enhanced transport in both directions
Transport across monolayer after pABA treatment vs control ([8]; PBEC, pABA 1 mM 5 days): increased transport
Structure (SMILES): COC1=C(OC)C(=O)C(C/C=C(\C)CC/C=C(\C)CC/C=C(\C)CC/C=C(\C)CC/C=C(\C)CC/C=C(\C)CC/C=C(\C)CC/C=C(\C)CC/C=C(\C)CCC=C(C)C)=C(C)C1=O [CoQ10, Coenzyme Q10]
Increase in cerebral cortex CoQ10 and CoQ9 [1]: 30%
MRC function [2]: restores MRC function
Patients with improvement/stabilisation in ataxic symptoms [4]: 49%
Brain levels of CoQ10 and CoQ9 [5]: significantly increased in brain levels of CoQ10 and CoQ9
Highest achievable CoQ10 plasma concentration [7]: 10.7 µmol/L
